Patent US20230213511A1, “METHOD FOR EVALUATING ALLERGEN INACTIVATORS AND KIT FOR EVALUATING ALLERGEN INACTIVATORS” (SCHOOL CORPORATION, AZABU VETERINARY MEDICINE EDUCATIONAL …, priority 2020, published 2023)

Columns and labels:
[1] = target: T1, purified mite allergens "Der f1" (Dermatophagoides farinae, UniProt P16311); experiment: Immunostaining of purified mite allergens supported on a PVDF membrane after treatment using the test drug; type: biochemical; details: two hours at normal temperature, vs PBS (−); for capacity for recognition by the specific antibodies (anti-Der f1 monoclonal antibodies), immunostaining: 5 ppm Bi-jia water, 5 ppm sodium hypochlorite, 6M guanidine; for properties enabling recognition by the specific antibodies (anti-Der f1 monoclonal antibodies), immunostaining: test example 3, 30 v/v % hydrogen peroxide water, 10 mM hydrochloric acid (pH 2)
T1 construct: purchased ITEA Inc
T1 sequence (P16311 99-321): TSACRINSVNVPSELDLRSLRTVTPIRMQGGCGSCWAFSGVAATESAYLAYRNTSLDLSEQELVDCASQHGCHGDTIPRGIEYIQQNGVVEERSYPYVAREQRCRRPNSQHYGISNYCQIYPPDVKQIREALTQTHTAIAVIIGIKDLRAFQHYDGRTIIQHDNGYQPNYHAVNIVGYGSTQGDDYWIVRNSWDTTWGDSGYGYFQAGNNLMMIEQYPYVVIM
Protocol: (3-1. PVDF membrane) • A PVDF membrane (pore diameter: 0.45 μm) was immersed in methanol to be made hydrophilic, after which a prescribed quantity of allergens was blotted onto the PVDF membrane in a dot formation (0-100 ng/dot).
(4. Treatment using test drug) • The allergen-supporting membrane was washed three times using PBS (−). • The membrane was placed in a plastic container and immersed in 5 mL of a solution containing the test drug. • The membrane was allowed to stand for two hours at normal temperature. • The solution of the test drug was discarded, and the membrane was washed three times using PBS (−). • Protein staining or immunostaining was carried out.
(6. Immunostaining) • The allergen-supporting membrane (after “4. Treatment using test drug” described above) was immersed in 1 w/v % gelatin-containing PBS and was blocked for ten minutes at 37° C. • The blocking liquid was discarded, and the membrane was washed three times using PBS (−). • Primary antibodies were diluted using 1 w/v % BSA-containing PBST (0.02 v/v % Tween-20) so as to reach a concentration of 1 μg/mL, 2 mL of the primary antibodies was added to the blocked membrane, and a reaction was carried out for 30 minutes at normal temperature while the membrane was shaken. • A primary antibody reaction solution was discarded, and the membrane was washed three times using PBST. • HRP-labeled secondary antibodies (product name “HRP-Goat anti-Mouse IgG,” made by Zymed Laboratories) were diluted using 1 w/v % BSA-containing PBST (0.02 v/v % Tween-20) so as to reach a concentration of 3 μg/mL, 2 mL of the secondary antibodies was added to the membrane reacted with the primary antibodies, and a reaction was carried out for 30 minutes at normal temperature while the membrane was shaken. • A secondary antibody reaction solution was discarded, and the membrane was washed four times using PBST. • An amount of 1 mL of a coloring reagent solution (product name “Ez West Blue,” made by ATTO Co., Ltd.) was added to the membrane reacted with the secondary antibodies, and a reaction was carried out for ten minutes. • The membrane was washed using a large amount of distilled water, and the reaction was stopped. • The membrane was allowed to spontaneously dry.
(§1) Specifically, purified mite allergens were dot-blotted in an amount of 0, 12.5, 25, 50, or 100 ng onto a single PVDF membrane cut into a rectangular strip to produce an allergen-supporting membrane. Two identical allergen-supporting membranes were provided in this manner. First, the two allergen-supporting membranes were treated using the same test drug, a washing treatment using PBS was furthermore carried out, and then one of the treated membranes was supplied for protein staining using the gold stain and the other of the treated membranes was supplied for immunostaining using the anti-Der f1 monoclonal antibodies.
as §1, with “4, 20,” for “12.5, 25, 50,”, “antibodies. […]” for “antibodies.”

[2] = target: T2, purified Japanese cedar pollen allergens "Cry j1" (Cryptomeria japonica, UniProt P18632); experiment: Immunostaining of Cry j1 on multiscreen filter plate with PVDF filter membrane after treatment using the test drug; type: biochemical; details: test example 9, two hours at normal temperature, 0.1% SDS, 6M guanidine, other drugs of FIG. 16, vs PBS
T2 construct: purchased ITEA Inc
T2 sequence (P18632 22-374): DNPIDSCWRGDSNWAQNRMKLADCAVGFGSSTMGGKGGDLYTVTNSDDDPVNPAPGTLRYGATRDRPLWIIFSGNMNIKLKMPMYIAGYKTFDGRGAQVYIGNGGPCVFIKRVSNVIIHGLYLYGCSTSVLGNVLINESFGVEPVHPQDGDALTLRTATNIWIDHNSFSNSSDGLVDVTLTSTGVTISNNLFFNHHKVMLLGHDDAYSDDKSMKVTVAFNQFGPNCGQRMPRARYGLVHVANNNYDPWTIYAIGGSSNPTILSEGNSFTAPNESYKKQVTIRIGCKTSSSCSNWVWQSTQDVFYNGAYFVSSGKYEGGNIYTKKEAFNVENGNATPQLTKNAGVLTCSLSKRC
Text: […]

[3] = target: T2, purified Japanese cedar pollen allergens "Cry j1"; experiment: Immunostaining of Cry j1 on multiscreen filter plate with cellulose mixed ester filter membrane after treatment using the test drug; type: biochemical; details: test example 8, two hours at normal temperature, 5 ppm NaClO (Bi-jia water), 6M guanidine, other drugs of FIG. 15, vs PBS
Protocol: A test for evaluating allergen inactivators was conducted using, as an allergen support, a multiscreen filter plate (MultiScreen HTS HA sterile plate, Millipore, #MSHAS4510) provided with a filter membrane composed of a cellulose mixed ester (substance similar to nitrocellulose) in each well. Specifically, as per the main points of the operational procedure for the test shown in FIG. 6, a test was conducted in accordance with the following protocol.
(1. Formulation of Allergen-Supporting Membrane and Treatment Carried Out Using Test Drug) • An amount of 2 μL of purified Japanese cedar pollen allergens (product name “Cry j1”) (made by ITEA Inc.) (origin: Japanese cedar (Cryptomeria japonica)) in each stage of dilution (50, 10, 2, or 0 ng/μL) was added dropwise into each well of the multiscreen filter plate and was allowed to spontaneously dry. • Filtration washing was carried out three times using 200 μL of PBS. • An amount of 200 μL of the drugs being examined (the various drugs being examined, and concentrations thereof, shown in FIG. 15; PBS as a control) was added, and the multiscreen filter plate was allowed to stand for two hours at normal temperature. • The drugs being examined were removed through pipetting. • Filtration washing was carried out three times using 200 μL of PBS. • To immunostaining or gold staining […]

[4] = test system: extract from the grass Phleum pratense, the weed Plantago lanceolata, or house dust containing Dermatophagoides pteronyssinus; details: extract treated using a 1% aqueous solution of tannic acid; cited from earlier work
[5] = test example 2, PVDF membrane, 0, 4, 20, 100 ng/dot, 0.1 w/v % SDS
[6] = PVDF membrane, 0, 4, 20, 100 ng/dot

With `CCCCCCCCCCCCOS(=O)(=O)[O-].[Na+]` [SDS] the “capacity for recognition by the specific antibodies (anti-Der f1 monoclonal antibodies), immunostaining” value [1, 5] was “notably weakened” and the “capacity for recognition by the specific antibodies (anti-Cry j1 monoclonal antibodies), immunostaining” value [2] was “notably weakened”.
For `N=C(N)N` [guanidine], the “capacity for recognition by the specific antibodies (anti-Cry j1 monoclonal antibodies), immunostaining” value [2] was “notably weakened” and the “capacity for recognition by the specific antibodies (anti-Cry j1 monoclonal antibodies), immunostaining” value [3] was “notably weakened”.
In the case of `Cl` [hydrochloric acid], the “properties enabling recognition by the specific antibodies (anti-Der f1 monoclonal antibodies), immunostaining” value [1, 6] was “weakened”.
In the case of `OO` [hydrogen peroxide water, hydrogen peroxide], the “properties enabling recognition by the specific antibodies (anti-Der f1 monoclonal antibodies), immunostaining” value [1, 6] was “weakened”.
For `OCl` [sodium hypochlorite], the “capacity for recognition by the specific antibodies (anti-Der f1 monoclonal antibodies), immunostaining” value ([1]; test example 1, PVDF membrane, 0-100 ng/dot) was “notably weakened” and the “capacity for recognition by the specific antibodies (anti-Der f1 monoclonal antibodies), immunostaining” value [1, 5] was “notably weakened”.
In the case of `O=C(OC[C@H]1O[C@@H](OC(=O)c2cc(O)c(O)c(OC(=O)c3cc(O)c(O)c(O)c3)c2)[C@H](OC(=O)c2cc(O)c(O)c(OC(=O)c3cc(O)c(O)c(O)c3)c2)[C@@H](OC(=O)c2cc(O)c(O)c(OC(=O)c3cc(O)c(O)c(O)c3)c2)[C@@H]1OC(=O)c1cc(O)c(O)c(OC(=O)c2cc(O)c(O)c(O)c2)c1)c1cc(O)c(O)c(OC(=O)c2cc(O)c(O)c(O)c2)c1` [tannic acid], the “allergenicity in a cutaneous reaction test” value [4] is listed as “allergenicity can be mitigated”.
